Measured values published in patent US12552797B2, “Process for making (3-[cyclopropylethoxy(difluoro)methyl]-6-6[5-fluoro-6-(2,2,2-trifluoroethoxy-3-pyridyl]- [1,2,4]triazolo[4,3-a]pyrazine” (Praxis Precision Medicines, Inc., priority 2019, dated 2026).
≈ marks a conversion by molar mass, not a printed value. Where two headings read alike, the source gives them in different places.

What was measured:
[1] = Phase 1 single/multiple ascending dose and food effect trial in healthy volunteers: pharmacokinetics (plasma, urine); format: in vivo, human
Text: This is a three-part clinical trial to evaluate the safety, tolerability, PK, and food effect of Compound 1 in healthy volunteers aged 18 to 55 years inclusive. The clinical trial is comprised of the following 3 parts: • Part A is randomized, double-blinded and placebo-controlled. Part A is designed to investigate the safety and PK of single ascending doses of Compound 1. • Part B is randomized, double-blinded and placebo-controlled. Part B is designed to investigate the safety and PK of multiple ascending doses of Compound 1 (selected based on the results from Part A). • Part C is a randomized, open-label, crossover design to investigate the PK of a single dose of Compound 1 in the fasted and fed state. Objectives and Endpoints: Part A
Part C may commence once the safety and PK have been adequately evaluated in the last cohort of Part A. Up to 16 participants receive two doses of Compound 1, one dose after a minimum of 10 hours fasting and one after consumption of a high-fat, high calorie meal in a randomized crossover design, with a 7 day washout in between periods. Up to 3 additional days of washout may be added between fasted and fed dosing based on the observed half-life in Part A.
A validated bioanalytical method is utilized for the determination of plasma and urine concentrations of Compound 1. Plasma and urine concentrations are summarized by dose group/condition and timepoint using descriptive statistics. In addition to descriptive statistics specified in General Conditions above, plasma concentrations are also summarized using number and percentage of concentrations below the level of quantification (BLQ) and coefficient of variation (CV %).
Pharmacokinetic parameters are estimated from concentration-time data using standard non-compartmental methods. Urine PK parameters are estimated from urine concentration and urine volume data. PK parameters are summarized by dose group/condition using descriptive statistics. In addition to descriptive statistics specified in General Conditions above, PK parameters are summarized using CV %, geometric mean, and geometric coefficient of variation. PK parameters are assessed for linearity and dose proportionality using the power model where feasible. To test for a food effect in Part C, the geometric mean ratio (In transformed) of the test treatment (ie, fed condition) relative to the reference treatment (ie, fasted condition) are estimated with the 90% CIs calculated for Cmax and AUC0-inf. […]
Part C may commence once the safety and PK have been adequately evaluated in the last cohort of Part A. Participants receive two doses of Compound 1, one dose after a minimum of 10 hours fasting and one after consumption of a high-fat, high calorie meal in a randomized crossover design, with a 7 day washout in between periods. […]

[2] = Solubility of Compound 1 in solution formulation vehicles (visual); format: physicochemical; conditions: for solubility: organic solvent or mixture, thermodynamic from solid, read-out: maximum solubility (visually determined)
Description: 2400 μL PEG 400 was added to a 8 mL glass vial together with 3 mg of Compound 1 and mixed together by Vortex and sonicated for 5 min. Then 600 μL Cremophor RH40 was added to the container, mixed together by Vortex and sonicated for 5 min. Then 3000 μL water was added to the container, mixed together by Vortex and sonicated for 5 min.
About 15 mg compound were weighted to a 8 mL glass container and then 2 mL Prototype 2a was added to the glass container. The contents were mixed together by vortexing and sonication for 5 min.
About 15 mg compound was weighed to an 8 mL glass containers and then 2 mL of Prototype 2b was added to the container and mixed together by vortex and sonicated for 5 min. […] in Prototype 2b with 7.5 mg/mL was not clear. Then another 140 μL of Prototype 2b vehicle was added to the container and mixed together by vortex and sonicated for 5 min.
600 μL PEG 400 was added to a 4 mL glass vial together with 3 mg of Compound 1 and mixed together by Vortex and sonicated for 5 min. Then 150 μL Cremophor RH40 was added to the container and mixed together by Vortex and sonicated for 5 min. Then 750 μL water was added to the container and mixed together by vortexing and sonicated for 5 min.
Cremophor RH40, Capmul MCM Co, Triethylcitrate and Ethanol were added together on a weight basis to a glass container and mixed together to form a solution mixture. […] Additional Compound 1 was added with vortexing and sonication until Compound 1 was no longer soluble. The resulting maximum solubility was visually determined to be between 25 and 50 mg/mL.
Capryol 90, Labrasol and Transcutol HP were added together on a volumetric basis to a glass container and mixed together to form a solution mixture. […] Additional Compound 1 was added with vortexing and sonication until Compound 1 was no longer soluble. The resulting maximum solubility was visually determined to be between 60 and 80 mg/mL.

With `CCOC(F)(F)c1nnc2cnc(-c3cnc(OCC(F)(F)F)c(F)c3)cn12` [Compound 1, 3-(ethoxydifluoromethyl)-6-(5-fluoro-6-(2,2,2-trifluoroethoxy)pyridin-3-yl)-[1,2,4]triazolo[4,3-a]pyrazine] as the compound, how does the “time to maximal concentrations” value ([1]; healthy volunteers, oral capsules, fasted, preliminary data) read?
The value was 2 to 3 h.

What about the “exposure versus dose level” value ([1]; healthy volunteers, preliminary data) of the same compound?
The value was “increase proportionate to dose level”.

And the half-life ([1]; human, plasma, oral, average across groups, healthy volunteers, preliminary data, read-out: Terminal elimination half-life (converted))?
The half-life was 4.75 days.

What about the “time to 90% of steady-state” value ([1]; once daily dosing) of the same compound?
Its value is “approximately 2 weeks”.

What about the “dissolution in vehicle (visual)” value ([2]; Prototype 1: 40% PEG 400/10% Cremophor RH40/50% Water, 0.5 mg/mL) of the same compound?
The value was “dissolved completely”.

And the “dissolution in vehicle (visual)” value ([2]; Prototype 2a vehicle, 7.5 mg/mL)?
The value was “clear solution”.

What about the “dissolution in vehicle (visual)” value ([2]; Prototype 2b vehicle, 7.5 mg/mL) of the same compound?
Its value is “not clear”.

What about the “dissolution in vehicle (visual)” value ([2]; Prototype 3, 2 mg/mL) of the same compound?
Its value is “dissolved completely”.

And the solubility ([2]; Prototype 4 solution formulation vehicle, Prototype 4: 36% Cremophor RH40+45% Capmul MCM C8+9% Triethylcitrate+10% Ethanol)?
Its solubility is 25 to 50 mg/mL (≈ 61.4 to 123 mM).

What about the solubility ([2]; Prototype 5 solution formulation vehicle, Prototype 5: 40 Capryol 90+20% Labrasol+40% Transcutol HP) of the same compound?
The solubility was 60 to 80 mg/mL (≈ 147 to 196 mM).
